Results from patent US5821118A, “Genes for the subunits of human farnesyl-protein transferase” (Merck & Co., Inc., priority 1995, dated 1998).
Where two headings read alike, the source gives them in different places.

Key:
[1] = biological target: T1, human FPTase (Homo sapiens, UniProt P49354+P49356); test: Assay of compounds for FPTase inhibitory activity, once purified human FPTase; assay type: biochemical
T1 construct: codons for Glutamic acid-Glutamic acid-Phenylalanine-stop were placed after the last codon for the β subunit; made in house; host or cells: E. coli DH5a

[2] = biological target: T2, Bovine brain FTase (Bos taurus, UniProt P29702+P49355); test: Assay of compounds for FPTase inhibitory activity, bovine brain FPTase; assay type: biochemical
T2 construct: an assay employing bovine brain FPTase; from tissue; host or cells: bovine brain
Method: The purified, recombinantly expressed, mammalian FPTase is employed in an assay to determine the inhibitory activity against FPTase mediated farnesylation of Ras by various pharmaceutical compounds. […] The purified mammalian FPTase is then added to the assay mixture and the assay mixture is incubated for a period of time such as 10-30 minutes at 30° C. The assay mixture is then quenched and the Ras protein is separated from free FPP by techniques well known in the art. […] This value may be compared to the relative value of the amount of Ras farnesylated in the absence of the pharmaceutical agent and to the relative value of the amount of Ras farnesylated in the presence of other pharmaceutical agents.
[^3 H]Farnesyl diphosphate (FPP) (20 Ci/mmol) was purchased from New England Nuclear. In general, inhibitory activity assays were carried out at 30° C. A typical assay reaction contained (in a final volume of 50 μL): [^3 H]farnesyl diphosphate, Ras protein (3.5 μM), 50 mM HEPES, pH 7.5, 5 mM MgCl2, 1 mM dithiothreitol, and the compound to be assayed. After thermally preequilibrating the assay mixture, the reaction was initiated by the addition of the purified mammalian FPTase and the reaction was stopped at timed intervals by the addition of 1M HCl in ethanol (1 mL). The quenched reactions were allowed to stand for 15 minutes. After adding 2 mL of 100% ethanol, the mixtures were vacuum filtered through Whatman GF/C filters. Filters were washed four times with 2 mL aliquots of 100% ethanol, mixed with scintillation fluid (10 mL) and then counted in a Beckmann LS3801 scintillation counter.

[3] = Human FTase, Ras protein 3.5 μM, pH 7.5, 30° C, * = alternative substrates (CVIM, CVIL, FPP)
[4] = Bovine brain FTase, Ras protein 3.5 μM, pH 7.5, 30° C, * = alternative substrates (CVIM, CVIL, FPP)

IC50 [1] [nM] | IC50 [2] [nM] | Molecule | IC50 [1, 3] [nM] | IC50 [2, 4] [nM]
18 | 20 | CC(C)=CCC/C(C)=C/CC/C(C)=C/C(O)P(=O)(O)O (racemic) [Compound A, (R,S)[1hydroxy-(E,E)-3,7,11-trimethyl-2,6,10-dodeca-trienyl]phosphonic acid] | – | –
250 | 200 | CC(C)=CCC/C(C)=C/CC/C(C)=C/CO[P@@](=O)(O)OP(=O)(O)O (stereo in doubt) [FPP, farnesyl diphosphate] | – | –
240 | 200 | CC(C)=CCC/C(C)=C/CC/C(C)=C/CC/C(C)=C/COP(=O)(O)OP(=O)(O)O [GGPP, geranylgeranyl-diphosphate] | – | –
– | – | cysteinylisolleucinyl-phenylalaninyl-methionine [CIFM] | 17 | 10
– | – | cysteinylvalinyl-isolleucinyl-leucine (CVIL) | 6200 | 20000
